Experimental data: patent US20260294915A1, “COMBINATION THERAPY COMPRISING A MAT2A INHIBITOR AND A TOPOISOMERASE INHIBITOR, A SPLICING INHIBITOR SULFONAMIDE, OR A KIF18 INHIBITOR” (IDEAYA BIOSCIENCES, INC., priority 2023, published 2026)
pIC50: −log10 of the molar value. Structures can show the parent of a compound that is named as a salt. Values belong to the compound of their own block, whether it stands above or below them.

What was measured:
[1] = test system: MKN45 (RCB1001) human gastric tumor cell-derived xenograft (CDX) model; assay: Anti-tumor activity in MKN45 gastric mouse xenograft (CDX) model (Example 8); type: in vivo; conditions: 3 days on/4 days holiday
Description: (§1) All mouse studies were approved by the Institutional Animal Care and Use Committee (IACUC) based on guidelines from the National Institutes of Health (NIH). Mice were maintained under pathogen-free conditions, and food and water were provided ad libitum.
(§2) The anti-tumor effect of Compound A and irinotecan hydrochloride as single-agents or in combination was assessed in the MKN45 (RCB1001) human gastric tumor cell-derived xenograft (CDX) model. MKN45 was expanded in RPMI1640 with 10% fetal bovine serum. Cells were free of mycoplasma and authenticated by STR profiling, and ten million cells in log growth phase were resuspended in Hanks Balanced Salt Solution containing 50% Matrigel and implanted subcutaneously into the flank of each recipient female Crl:NU-Foxn1nu mouse. Mice were housed in microisolator cages with corn cob bedding with additional enrichment consisting of sterile nesting material (Innovive) and Bio-huts (Bio-Serv). Water (Innovive) and diet (Teklad Global 19% Protein Extruded Diet 2919, Irradiated) were provided ad libitum. The environment was maintained on a 12-hour light cycle at approximately 68-72° F. and 40-60% relative humidity.
(§3) Tumor Volume (TV) was calculated using the following formula: TV (mm^3)=(width×width×length)/2. Tumor growth inhibition (TGI) was calculated by [(TV controlfinal−TV treatedfinal)/(TV controlfinal−TV controlinitial)×100]. TV was analyzed for statistical significance utilizing GraphPad Prism version 10.2.2. Repeated Measures 2-Way ANOVA with Dunnet's Multiple Comparisons was utilized, and P-values were derived from data collected on the date of Vehicle group termination and were considered statistically significant if less than 0.05.
(§4) Mean tumor volume at dosing start was approximately 190 mm^3, with six mice randomized to each treatment group. Mice were dosed orally, once per day, with Vehicle, Compound A at 10 mg/kg, or dosed for 3 consecutive days followed by 4 days holiday by intraperitoneal (IP) injection of Compound B at 5 mg/kg or 10 mg/kg, or combination of Compound A and Compound B. The vehicle group was a combination of Vehicle A (for Compound A, 0.5% 400 cps methylcellulose with 0.5% Tween-80 in sterile water) and Vehicle B (for irinotecan hydrochloride, Saline).

[2] = test system: LMSU (RCB1062) human gastric tumor cell-derived xenograft (CDX) models; assay: Anti-tumor activity in LMSU gastric mouse xenograft (CDX) model (Example 9); type: in vivo; conditions: 3 days on/4 days holiday; for Day 11 TV (mean): initial TV 185, vehicle 1018
Description: as §1
as §2, with “LMSU (RCB1062)” for “MKN45 (RCB1001)”, “models. LMSU” for “model. MKN45”, “HamF10” for “RPMI1640”
as §3
as §4, with “185” for “190”, “seven” for “six”

[3] = test system: RT112/84 human bladder tumor cell-derived xenograft (CDX) model; assay: Anti-tumor activity in RT112/84 mouse xenograft (CDX) model (Example 7); type: in vivo
Description: as §1
The anti-tumor effect of Compound A and irinotecan hydrochloride as single-agents or in combination was assessed in the RT112/84 human bladder tumor cell-derived xenograft (CDX) model. Cells were expanded in RPMI-1640 (Gibco, Catalog Number 11875093) with 10% fetal bovine serum. These cells were free of mycoplasma and authenticated by STR profiling. Five million cells in log growth phase were resuspended in Hanks Balanced Salt Solution containing 50% Matrigel and implanted subcutaneously into the flank of each recipient female Crl:NU-Foxnlnu mouse. Mice were housed in microisolator cages with corn cob bedding with additional enrichment consisting of sterile nesting material (Innovive) and Bio-huts (Bio-Serv). Water (Innovive) and diet (Teklad Global 19% Protein Extruded Diet 2919, Irradiated) were provided ad libitum. The environment was maintained on a 12-hour light cycle at approximately 68-72° F. and 40-60% relative humidity.
as §3, with “10.0.3.” for “10.2.2.”, “Tukey's” for “Dunnet's”, “Day 14 (date” for “the date”, “termination)” for “termination”, “0.05. Tumor regression was calculated by using the percent change in tumor volume from the final tumor volume measurement from Day 73 when compared to the initial tumor volume from Day 1. Tumor regression was defined as reduced TV on Day 73 compared to Day 1. Tumor regression rate was defined as the percentage of animals per group with tumor regression.” for “0.05.”
as §4, with “249” for “190”, “ten” for “six”, “5” for “5 mg/kg or 10”

TCCSUP = assay: 10-day proliferation (CTG), equimolar Compound A + SPLAM (Example 4); type: cell-based; conditions: single agent or 1:1 combo
Description: (§5) A 10-day proliferation assay was performed in a panel of 5 MTAP-deficient and 2 wild type non-small cell lung and bladder cancer cell lines. Optimal cell seeding for all cell lines was determined by assessing the growth over a range of seeding densities in a 384-well format to identify conditions that permitted proliferation for 10 days. Cells were then plated at the optimal seeding density and treated with 20-point, two-fold dilution series of Compound A, the splicing inhibitor sulfonamide (SPLAM), or an equimolar combination of Compound A and the SPLAM. Combinations tested included Compound A in combination with four structurally different SPLAMs. Concentrations tested for Compound A and each SPLAM alone or in combination ranged from 0.04 nM to 20,000 nM. A plate of cells was harvested at the time of compound addition to quantify the number of cells at the start of the combination (T0). For cell quantification, the harvested cells were lysed with Promega CellTiter-Glo (CTG) reagent according to the manufacturer's protocol and the chemiluminescent signal was detected on a Synergy Neo plate reader. CTG estimates cell number through detection of cellular ATP levels. Cells were incubated with the drug combinations at 37° C. with 5% CO2 for 10 days. Cells were then lysed with CTG and the chemiluminescent signal was measured.
(§6) CTG values obtained after the 10-day treatment were background subtracted and expressed as a percent of the T0 value. Data were plotted against compound concentration and fit with a four-parameter equation to generate dose response curves for each single agent and the equimolar combination. Growth ICx (gICx) values ranging from gIC30 to gIC100 were interpolated from the fitted curves. Synergistic growth inhibition was assessed by determination of Combination Index (CI) values at these various points across the titration using the mutually non-exclusive equation [Chou, 1983; Chou, 1981] shown below where A equals the gICx value of Compound A, B equals the gICx value of the SPLAM, and A+B or B+A equals the gICx value of the equimolar combination. A Combination Index value less than 1.0 was considered synergistic.

UMUC11 = assay: as above; type: cell-based; conditions: single agent or 1:1 combo
Description: as §5, §6

RT112/84 = assay: as above; type: cell-based; conditions: single agent or 1:1 combo
Description: as §5, §6

NCI-H838 = assay: as above; type: cell-based; conditions: single agent or 1:1 combo
Description: as §5, §6

NCI-H520 = assay: as above; type: cell-based; conditions: single agent or 1:1 combo
Description: as §5, §6

SW900 = assay: as above; type: cell-based; conditions: single agent or 1:1 combo
Description: as §5, §6

UMUC5 = assay: as above; type: cell-based; conditions: single agent or 1:1 combo
Description: as §5, §6

[4] = irinotecan hydrochloride 5 mg/kg IP
[5] = irinotecan hydrochloride 10 mg/kg IP
[6] = irinotecan hydrochloride 5 mg/kg IP, 3 days on/4 days holiday

Structure (SMILES): CCc1c2c(nc3ccc(OC(=O)N4CCC(N5CCCCC5)CC4)cc13)-c1cc3c(c(=O)n1C2)COC(=O)[C@]3(O)CC [irinotecan hydrochloride]
Day 25 TGI [1, 4]: 49%
Tumor Regression Rate on Day 25 [1, 4]: 0%
Day 25 TV (mean) ([1]; irinotecan hydrochloride 5 mg/kg IP, initial TV 190, vehicle 1396): 807 mm^3
Day 25 TGI [1, 5]: 85%
Tumor Regression Rate on Day 25 [1, 5]: 17%
Day 25 TV (mean) ([1]; irinotecan hydrochloride 10 mg/kg IP, initial TV 192, vehicle 1396): 369 mm^3
Day 11 TGI [2, 4]: 42%
Tumor Regression Rate on Day 11 [2, 4]: 0%
Day 11 TV (mean) [2, 4]: 671 mm^3
Day 11 TGI [2, 5]: 80%
Tumor Regression Rate on Day 11 [2, 5]: 14%
Day 11 TV (mean) [2, 5]: 353 mm^3
TGI ([3]; Compound A 10 mg/kg oral once per day, irinotecan 5 mg/kg IP 3 days on/4 days off): 83%
response rate (mice with tumor regressions) ([3]; day 73, Compound A 10 mg/kg oral, irinotecan 5 mg/kg IP): 30%
Day 14 TGI [3, 6]: 83%
Tumor Regression Rate on Day 73 [3, 6]: 30%
Day 14 TV (mean) ([3]; irinotecan hydrochloride 5 mg/kg IP, 3 days on/4 days holiday, initial TV 249, vehicle 1069): 387 mm^3

pIC50 (NCI-H838; Homo sapiens, NCI-H838, read-out: gIC50): 5.31
IC90 (NCI-H838; 14400 min, read-out: gIC90): 7.97 µM
pIC50 (NCI-H520; Homo sapiens, NCI-H520, read-out: gIC50): 4.95
IC90 (NCI-H520; 14400 min, read-out: gIC90): 12 µM
pIC50 (SW900; Homo sapiens, SW900, read-out: gIC50): 4.70
IC90 (SW900; 14400 min, read-out: gIC90): 20 µM
Structure (SMILES): O=C(NS(=O)(=O)c1ccc(Br)s1)c1ccc(Cl)cc1Cl [Tasisulam, N-((5-bromothiophen-2-yl)sulfonyl)-2,4-dichlorobenzamide]
pIC50 (TCCSUP; Homo sapiens, TCC-SUP, read-out: gIC50): 4.70
gIC30 (TCCSUP): 20 µM
gIC40 (TCCSUP): 20 µM
gIC60 (TCCSUP): 20 µM
gIC70 (TCCSUP): 20 µM
gIC100 (TCCSUP): 20 µM
IC80 (TCCSUP; 14400 min, read-out: gIC80): 20 µM
IC90 (TCCSUP; 14400 min, read-out: gIC90): 20 µM
gIC30 (UMUC11): 17.77 µM
gIC40 (UMUC11): 18.358 µM
gIC60 (UMUC11): 19.349 µM
gIC70 (UMUC11): 19.781 µM
gIC100 (UMUC11): 20 µM
IC80 (UMUC11; 14400 min, read-out: gIC80): 20 µM
IC90 (UMUC11; 14400 min, read-out: gIC90): 20 µM
pIC50 (UMUC11; read-out: gIC50): 4.72
pIC50 (RT112/84; Homo sapiens, RT112/84, read-out: gIC50): 4.70
gIC30 (RT112/84): 20 µM
gIC40 (RT112/84): 20 µM
gIC60 (RT112/84): 20 µM
gIC70 (RT112/84): 20 µM
gIC100 (RT112/84): 20 µM
IC80 (RT112/84; 14400 min, read-out: gIC80): 20 µM
IC90 (RT112/84; 14400 min, read-out: gIC90): 20 µM
gIC30 (NCI-H838): 7.419 µM
gIC40 (NCI-H838): 4.551 µM
gIC60 (NCI-H838): 5.372 µM
gIC70 (NCI-H838): 5.923 µM
gIC100 (NCI-H838): 20 µM
IC80 (NCI-H838; 14400 min, read-out: gIC80): 6.69 µM
gIC30 (NCI-H520): 9.551 µM
gIC40 (NCI-H520): 10.354 µM
gIC60 (NCI-H520): 12.274 µM
gIC70 (NCI-H520): 13.716 µM
gIC100 (NCI-H520): 20 µM
IC80 (NCI-H520; 14400 min, read-out: gIC80): 16.4 µM
gIC30 (SW900): 20 µM
gIC40 (SW900): 20 µM
gIC60 (SW900): 20 µM
gIC70 (SW900): 20 µM
gIC100 (SW900): 20 µM
IC80 (SW900; 14400 min, read-out: gIC80): 20 µM
gIC30 (UMUC5): 16.121 µM
gIC40 (UMUC5): 16.834 µM
gIC60 (UMUC5): 18.053 µM
gIC70 (UMUC5): 18.592 µM
gIC100 (UMUC5): 20 µM
IC80 (UMUC5; 14400 min, read-out: gIC80): 19.1 µM
IC90 (UMUC5; 14400 min, read-out: gIC90): 19.6 µM
pIC50 (UMUC5; read-out: gIC50): 4.76
